Data taken from patent publication US12435090B2, “Compounds, pharmaceutical compositions, and methods of preparing compounds and of their use” (Repare Therapeutics Inc., priority 2021, dated 2025).

These molecules were tested against recombinant human Myt1 (Homo sapiens (Human), UniProt Q99640) (assay: Myt1 enzymatic assay (ADP-Glo kinase assay)). Conditions: 18 nM enzyme, 10 uM ATP.
recombinant human Myt1, sequence (Q99640 whole entry): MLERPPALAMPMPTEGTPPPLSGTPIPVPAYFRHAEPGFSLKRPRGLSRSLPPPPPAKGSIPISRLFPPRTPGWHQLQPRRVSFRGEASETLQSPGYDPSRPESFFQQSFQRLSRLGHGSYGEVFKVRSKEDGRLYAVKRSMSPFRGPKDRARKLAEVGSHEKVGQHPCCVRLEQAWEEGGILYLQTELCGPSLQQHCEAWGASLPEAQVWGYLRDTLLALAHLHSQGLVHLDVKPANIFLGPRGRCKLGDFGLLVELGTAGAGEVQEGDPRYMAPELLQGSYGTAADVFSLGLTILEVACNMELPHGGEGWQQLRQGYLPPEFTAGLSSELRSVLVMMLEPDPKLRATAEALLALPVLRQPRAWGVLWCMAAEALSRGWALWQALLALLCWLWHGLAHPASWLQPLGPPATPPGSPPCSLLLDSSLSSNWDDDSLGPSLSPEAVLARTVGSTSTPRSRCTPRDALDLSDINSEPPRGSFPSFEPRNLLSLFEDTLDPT
Assay type: biochemical
Procedure: Detection of Myt1 kinase activity utilized a recombinant human Myt1 kinase assay measuring the hydrolysis of ATP using a commercially available ADP-Glo Assay (ADP-Glo™ Kinase Assay from Promega, 10 000 assays, #V9102). […] After this, 5 μL of compounds (diluted in reaction buffer to 0.5% DMSO) was added to the microplate and the plate was spun briefly and incubated at 22° C. for 15 minutes. Ultra-Pure Adenosine Triphosphate (ATP) solution (ADP-Glo kit from Promega) was diluted in reaction buffer and 5 μL was added to the microplate, spun down briefly and incubated for 60 minutes at 30° C. […] After the 60-minute incubation, 15 µL of ADP-Glo reagent was added and the plate was spun briefly and sealed and incubated in the dark for 40 minutes at 22° C. […] Luminescence was read using the Envision (250 ms integration). The IC50 and the % max inhibition were calculated for each inhibitor compound tested.
For `Cc1ccc(O)c(Cl)c1-n1c(N)c(C(N)=O)c2nc(C3CC3)cnc21` [Compound 104], the IC50 was under 10 nM. In the case of `Cc1c(O)ccc(Cl)c1-n1c(N)c(C(N)=O)c2nc(-c3nccs3)cnc21` [Compound 42], the IC50 is reported as under 10 nM. For `Cc1ccc(O)c(C)c1-n1c(N)c(C(N)=O)c2cc(N3CCCC3=O)cnc21` [Compound 298], the IC50 was under 10 nM. Molecule `Cc1cnc(O)cc1-n1c(N)c(C(N)=O)c2nc(C)c(C)nc21` [Compound 169, 6-amino-5-(2-hydroxy-5-methyl-4-pyridyl)-2,3-dimethyl-pyrrolo[2,3-b]pyrazine-7-carboxamide] has an IC50 of 1730 nM. With `Cc1ccc(O)c(C)c1-n1c(N)c(C(N)=O)c2cc(C(C)(C)O)cnc21` [Compound 131] the IC50 was under 10 nM. `Cc1ccc(O)c(C)c1-n1c(N)c(C(N)=O)c2nc(-c3ccnc(C(F)(F)F)c3)cnc21` [Compound 35, 6-amino-5-(3-hydroxy-2,6-dimethyl-phenyl)-2-[2-(trifluoromethyl)-4-pyridyl]pyrrolo[2,3-b]pyrazine-7-carboxamide] was tested, and the IC50 was under 10 nM. Work on `Cc1ccc(O)c(C)c1-n1c(N)c(C(N)=O)c2nc(C(C)(C)F)cnc21` [Compound 178, 6-amino-2-(1-fluoro-1-methyl-ethyl)-5-(3-hydroxy-2,6-dimethyl-phenyl) pyrrolo[2,3-b]pyrazine-7-carboxamide] yielded an IC50 of under 10 nM. Molecule `NC(=O)c1c(N)n(-c2cccc3[nH]ncc23)c2ncc(Cl)cc12` [Compound 334, 2-amino-5-chloro-1-(1H-indazol-4-yl)pyrrolo[2,3-b]pyridine-3-carboxamide] has an IC50 of 50 nM. In the case of `NC(=O)c1c(N)n(-c2cccc3[nH]ncc23)c2ncc(-c3nccs3)nc12` [Compound 332], the IC50 is reported as 142 nM. `Cc1ccc(O)c(C)c1-n1c(N)c(C(N)=O)c2ncc(C#CCC3CCOCC3)nc21` [Compound 222] gave an IC50 of under 10 nM. Work on `Cc1ccc(O)c(C)c1-n1c(N)c(C(N)=O)c2nc(-c3nc4ccccc4s3)cnc21` [Compound 248] yielded an IC50 of under 10 nM. With `Cc1ccc(O)c(C)c1-n1c(N)c(C(N)=O)c2nc(C3=CCCCC3)cnc21` [Compound 86] the IC50 was under 10 nM. `Cc1ccc(O)c(C)c1-n1c(N)c(C(N)=O)c2nc(-c3cncs3)cnc21` [Compound 37] showed an IC50 of under 10 nM. `Cc1ccc(O)c(C)c1-n1c(N)c(C(N)=O)c2cc(Br)c(C)nc21` [Compound 187] showed an IC50 of under 10 nM. `Cc1ccc(O)c(C)c1-n1c(N)c(C(N)=O)c2nc(-c3ccncn3)cnc21` [Compound 57] gave an IC50 of under 10 nM. With `Cc1ccc(O)c(C)c1-n1cc(C(N)=O)c2cc(C3CC3)cnc21` [Compound 143] the IC50 was under 10 nM. In the case of `Cc1ccc(O)c(C)c1-n1c(N)c(C(N)=O)c2nc(N3CC4CCC(C3)O4)cnc21` [Compound 92], the IC50 is reported as under 10 nM. Molecule `Cc1ccc(O)c(C)c1-n1c(N)c(C(N)=O)c2nc(-c3ccnnc3)cnc21` [Compound 250] has an IC50 of under 10 nM. `Cc1ccc(O)c(C)c1-n1c(N)c(C(N)=O)c2nc(-c3cn(C)cn3)cnc21` [Compound 76] showed an IC50 of under 10 nM. `Cc1ccc(O)cc1-c1cn(C(N)=O)c2cc(Cl)cnc12` [Compound 345, 6-chloro-3-(5-hydroxy-2-methyl-phenyl) pyrrolo[3,2-b]pyridine-1-carboxamide] gave an IC50 of 323 nM. `Cc1ccc(O)c(C)c1-n1c(N)c(C(N)=O)c2ncc(C#CC3(O)CCOCC3)nc21` [Compound 231] showed an IC50 of under 10 nM. `Cc1ccc(O)c(C)c1-n1c(N)c(C(N)=O)c2cc(C(C)C)cnc21` [Compound 138] was tested, and the IC50 was under 10 nM. In the case of `Cc1ccc(O)c(C)c1-n1c(N)c(C(N)=O)c2cc(-c3nccs3)cnc21` [Compound 308], the IC50 is reported as under 10 nM. For `Cc1ccc(O)c(Br)c1-n1c(N)c(C(N)=O)c2cc(Cl)cnc21` [Compound 289], the IC50 was under 10 nM. `C=Cc1cnc2c(n1)c(C(N)=O)c(N)n2-c1c(C)ccc(O)c1C` [Compound 259] showed an IC50 of under 10 nM. Work on `Cc1ccc(O)c(C)c1-n1c(N)c(C(N)=O)c2nc(-c3cnccn3)cnc21` [Compound 38] yielded an IC50 of under 10 nM. For `Cc1ccc(O)c(C)c1-n1c(N)c(C(N)=O)c2cc(C#N)cnc21` [Compound 312], the IC50 was under 10 nM. In the case of `Cc1ccc(O)c(C)c1-n1c(N)c(C(N)=O)c2nc(-c3nc(C)c(C)s3)cnc21` [Compound 32], the IC50 is reported as under 10 nM. `Cc1ccc(O)c(C)c1-n1c(N)c(C(N)=O)c2cc(S(=O)(=O)C3CC3)cnc21` [Compound 311] gave an IC50 of under 10 nM. Work on `Cc1ccc(O)c(Cl)c1-n1c(N)c(C(N)=O)c2cc(Cl)cnc21` [Compound 327] yielded an IC50 of under 10 nM. `Cc1nc2c(C(N)=O)c(N)n(-c3c(Cl)ccc(O)c3C)c2nc1C` [Compound 168] showed an IC50 of under 10 nM. For `CNC(=O)C1CCN(c2cnc3c(n2)c(C(N)=O)c(N)n3-c2c(C)ccc(O)c2C)CC1` [Compound 46, 6-amino-5-(3-hydroxy-2,6-dimethyl-phenyl)-2-[4-(methylcarbamoyl)-1-piperidyl]pyrrolo[2,3-b]pyrazine-7-carboxamide], the IC50 was under 10 nM. `Cc1ccc(O)c(C)c1-n1c(N)c(C(N)=O)c2cc(C3=CCOCC3)cnc21` [Compound 304] gave an IC50 of under 10 nM. `Cc1ccc(O)c(C)c1-n1c(N)c(C(N)=O)c2nc(N3CCC(C(=O)N(C)C)CC3)cnc21` [Compound 80] showed an IC50 of under 10 nM. `Cc1ccc(O)c(C)c1-n1c(N)c(C(N)=O)c2c(C)c(Cl)cnc21` [Compound 313] was tested, and the IC50 was under 10 nM. With `Cc1ccc(O)c(C)c1-n1c(N)c(C(N)=O)c2nc(C3=CCC(C(=O)N(C)C)CC3)cnc21` (stereo not drawn) [Compound 58] the IC50 was under 10 nM. `CCCCc1cnc2c(n1)c(C(N)=O)c(N)n2-c1cccc2[nH]ncc12` [Compound 331] was tested, and the IC50 was 1320 nM. With `Cc1ccc(O)c(C)c1-n1c(N)c(C(N)=O)c2cc(-c3ccccn3)cnc21` [Compound 295] the IC50 was under 10 nM. Molecule `Cc1ccc(O)c(C)c1-n1c(N)c(C(N)=O)c2nc(-c3ccc(F)cn3)cnc21` [Compound 64] has an IC50 of under 10 nM. Work on `Cc1ccc2c(C(N)=O)c(N)n(-c3c(C)ccc(O)c3C)c2n1` [Compound 193] yielded an IC50 of under 10 nM. Molecule `NC(=O)c1c(N)n(-c2cccc3[nH]ncc23)c2ncc(C3CC3)nc12` [Compound 330, 6-amino-2-cyclopropyl-5-(1H-indazol-4-yl)pyrrolo[2,3-b]pyrazine-7-carboxamide] has an IC50 of 106 nM. With `CCN(CC)c1cnc2c(n1)c(C(N)=O)c(N)n2-c1c(C)ccc(O)c1C` [Compound 88] the IC50 was under 10 nM. `Cc1cc2c(-c3c(C)ccc(O)c3C)c(N)c(C(N)=O)n2cc1C` [Compound 338, 2-amino-1-(3-hydroxy-2,6-dimethylphenyl)-6,7-dimethylindolizine-3-carboxamide] gave an IC50 of 108 nM. With `Cc1ccc(O)c(C)c1-n1c(N)c(C(N)=O)c2c(Cl)c(Cl)cnc21` [Compound 316] the IC50 was under 10 nM. For `NC(=O)c1c(N)n(-c2cccc3[nH]ncc23)c2ncc(-c3ncc(F)cc3F)nc12` [Compound 333, 6-amino-2-(3,5-difluoro-2-pyridyl)-5-(1H-indazol-4-yl)pyrrolo[2,3-b]pyrazine-7-carboxamide], the IC50 was 52 nM. In the case of `Cc1ccc(O)c(C)c1-n1c(N)c(C(N)=O)c2nc(-c3c[nH]cn3)cnc21` [Compound 65], the IC50 is reported as under 10 nM. Work on `CC(=O)N1CCN(c2cnc3c(n2)c(C(N)=O)c(N)n3-c2c(C)ccc(O)c2C)CC1` [Compound 87] yielded an IC50 of under 10 nM. In the case of `Cc1ccc(O)c(C)c1-n1c(N)c(S(C)(=O)=O)c2nc(-c3cnccn3)cnc21` [Compound 278], the IC50 is reported as over 5000 nM. Molecule `Cc1ccc2[nH]ncc2c1-n1c(N)c(C(N)=O)c2nccnc21` [Compound 329] has an IC50 of 1320 nM. `Cc1ccc(O)c(C)c1-n1c(N)c(C(N)=O)c2nc(C3CC3)c(C)nc21` [Compound 100] gave an IC50 of under 10 nM. Work on `Cc1ccc2[nH]ncc2c1-n1c(N)c(C(N)=O)c2cc(Cl)cnc21` [Compound 335] yielded an IC50 of 40 nM. For `Cc1ccc(O)c(C)c1-n1c(N)c(C(N)=O)c2nc(C(N)=O)cnc21` [Compound 220, 6-amino-5-(3-hydroxy-2,6-dimethyl-phenyl) pyrrolo[2,3-b]pyrazine-2,7-dicarboxamide], the IC50 was under 10 nM. Work on `Cc1ccc(O)c(C)c1-n1c(N)c(C(N)=O)c2nc(C3CCCCC3)cnc21` [Compound 83] yielded an IC50 of under 10 nM. With `C=C(C)c1cnc2c(n1)c(C(N)=O)c(N)n2-c1c(C)ccc(O)c1C` [Compound 202] the IC50 was under 10 nM. Molecule `Cc1ncc(O)cc1-n1c(N)c(C(N)=O)c2nc(C)c(C)nc21` [Compound 262] has an IC50 of 3230 nM. `Cc1ccc(O)c(C)c1-n1c(N)c(C(N)=O)c2cc(I)cnc21` [Compound 319] showed an IC50 of under 10 nM. For `Cc1ccc(-c2cnc3c(n2)c(C(N)=O)c(N)n3-c2c(C)ccc(O)c2C)nc1` [Compound 61], the IC50 was under 10 nM. `Cc1ccc(O)c(C)c1-n1c(N)c(C(N)=O)c2nc(-c3nccs3)c(C)nc21` [Compound 31, 6-amino-5-(3-hydroxy-2,6-dimethyl-phenyl)-3-methyl-2-thiazol-2-yl-pyrrolo[2,3-b]pyrazine-7-carboxamide] gave an IC50 of under 10 nM. Work on `Cc1ccc(O)c(C)c1-n1c(N)c(C(N)=O)c2cc(Br)cnc21` [Compound 141] yielded an IC50 of under 10 nM. `Cc1ccc(O)c(C)c1-n1c(N)c(C(N)=O)c2nc(-c3ccns3)cnc21` [Compound 41] gave an IC50 of under 10 nM. `Cc1cn2c(C(N)=O)c(N)c(-c3c(C)ccc(O)c3C)c2nc1C` [Compound 337, 7-amino-8-(3-hydroxy-2,6-dimethylphenyl)-2,3-dimethylpyrrolo[1,2-a]pyrimidine-6-carboxamide] showed an IC50 of under 10 nM. `Cc1cc2c(C(N)=O)c(N)c(-c3c(C)ccc(O)c3C)n2cc1C` [Compound 336, 2-amino-3-(3-hydroxy-2,6-dimethylphenyl)-6,7-dimethylindolizine-1-carboxamide] showed an IC50 of 38 nM. With `Cc1ccc(O)c(C)c1-n1c(N)c(C(N)=O)c2ncc(C#CC3(O)CCC(F)(F)CC3)nc21` [Compound 242, 6-amino-3-[2-(4,4-difluoro-1-hydroxy-cyclohexyl)ethynyl]-5-(3-hydroxy-2,6-dimethyl-phenyl) pyrrolo[2,3-b]pyrazine-7-carboxamide] the IC50 was under 10 nM.
